Where a name gives a salt, the structure may show the parent alone.
| Compound | melting point [°C] |
| --- | --- |
| Cc1ccc(-c2ccc3c(c2)CN(C)CCC3c2ccc(F)cc2)nn1 (single isomer, unassigned; (+)) (as salt: maleate) [Example 89, (+)-5-(4-fluorophenyl)-2-methyl-8-(6-methylpyridazin-3-yl)-2,3,4,5-tetrahydro-1H-benzo[c]azepine] | 173 to 176 |
| CN1CCC(c2ccccc2)c2ccc(C(C)(C)O)cc2C1 (single isomer, unassigned; (+)) (as salt: tartrate) [Example 18, (+)-2-(2-methyl-5-phenyl-2,3,4,5-tetrahydro-1H-benzo[c]azepin-8-yl)propan-2-ol] | 103 to 105 |
| Cc1nc(-c2ccc3c(c2)CN(C)CCC3c2ccccc2)no1 (single isomer, unassigned; (+)) (as salt: tartrate) [Example 33, (+)-5-methyl-3-(2-methyl-5-phenyl-2,3,4,5-tetrahydro-1H-benzo[c]azepin-8-yl)-1,2,4-oxadiazole] | 102 to 104 |
| Cc1ccc(-c2ccc3c(c2)CN(C)CCC3c2ccc(C#N)c(F)c2)nn1 (single isomer, unassigned; (+)) (as salt: tartrate) [Example 92 (+), (+)-2-fluoro-4-(2-methyl-8-(6-methylpyridazin-3-yl)-2,3,4,5-tetrahydro-1H-benzo[c]azepin-5-yl)benzonitrile] | 112 to 115 |
| CN1CCC(c2ccc3sccc3c2)c2ccc(-c3cncnc3)cc2C1.O=C(O)/C=C\C(=O)O (single isomer, unassigned; (+)) [Example 104, (+)-5-(benzo[b]thiophen-5-yl)-2-methyl-8-(pyrimidin-5-yl)-2,3,4,5-tetrahydro-1H-benzo[c]azepine, maleate salt] | 111 to 117 |
| CN1CCC(c2ccc3sccc3c2)c2ccc(-c3cnccn3)cc2C1.O=C(O)/C=C\C(=O)O (single isomer, unassigned; (+)) [Example 105, (+)-5-(benzo[b]thiophen-5-yl)-2-methyl-8-(pyrazin-2-yl)-2,3,4,5-tetrahydro-1H-benzo[c]azepine, maleate salt] | 102 to 108 |
| Cc1ccc(-c2ccc3c(c2)CN(C)CCC3c2ccc3sccc3c2)nn1.O=C(O)/C=C\C(=O)O (single isomer, unassigned; (+)) [Example 106, (+)-5-(benzo[b]thiophen-5-yl)-2-methyl-8-(6-methylpyridazin-3-yl)-2,3,4,5-tetrahydro-1H-benzo[c]azepine, maleate salt] | 105 to 109 |
| CN1CCC(c2ccc3sccc3c2)c2ccc(-c3cccnn3)cc2C1.O=C(O)/C=C\C(=O)O (single isomer, unassigned; (+)) [Example 107, (+)-5-(benzo[b]thiophen-5-yl)-2-methyl-8-(pyridazin-3-yl)-2,3,4,5-tetrahydro-1H-benzo[c]azepine, maleate salt] | 117 to 121 |
| Cc1ccc(-c2ccc3c(c2)CN(C)CCC3c2cccc(F)c2)nn1 (single isomer, unassigned; (-)) (as salt: citrate) [Example 84 (−), (−)-5-(3-fluorophenyl)-2-methyl-8-(6-methylpyridazin-3-yl)-2,3,4,5-tetrahydro-1H-benzo[c]azepine] | 107 to 110 |
| COc1ccc2c(c1)CN(C)CCC2c1ccc(F)cc1 (single isomer, unassigned; (-)) (as salt: hydrochloride) [Example 4 (−), (−)-5-(4-fluorophenyl)-8-methoxy-2-methyl-2,3,4,5-tetrahydro-1H-benzo[c]azepine] | 246 to 248 |
| COc1ccc(C2CCN(C)Cc3cc(OC)ccc32)cc1 (single isomer, unassigned; (-)) (as salt: hydrochloride) [Example 6 (−), (−)-5-(4-methoxyphenyl)-8-methoxy-2-methyl-2,3,4,5-tetrahydro-1H-benzo[c]azepine] | 193 to 194 |
| COc1ccc2c(c1)CN(C)CCC2c1ccc(Cl)cc1 (single isomer, unassigned; (-)) (as salt: hydrochloride) [Example 8 (−), (−)-5-(4-chlorophenyl)-8-methoxy-2-methyl-2,3,4,5-tetrahydro-1H-benzo[c]azepine] | 210 to 211 |
| CN1CCC(c2ccc(F)cc2)c2ccc(O)cc2C1 (single isomer, unassigned; (-)) (as salt: hydrochloride) [Example 14, (−)-5-(4-fluorophenyl)-2-methyl-2,3,4,5-tetrahydro-1H-benzo[c]azepin-8-ol] | 159 to 161 |

Continued, values first:

| melting point [°C] | Compound |
| --- | --- |
| 64 to 66 | CCN1CCC(c2ccccc2)c2ccc(N3CCOCC3)cc2C1 (single isomer, unassigned; (+)) (as salt: maleate) [Example 57 (+), (+)-4-(2-ethyl-5-phenyl-2,3,4,5-tetrahydro-1H-benzo[c]azepin-8-yl)morpholine] |
| 108 to 110 | c1ccc(CN2CCC(c3ccccc3)c3ccc(N4CCOCC4)cc3C2)cc1 (single isomer, unassigned; (+)) (as salt: maleate) [Example 61, (+)-4-(2-benzyl-5-phenyl-2,3,4,5-tetrahydro-1H-benzo[c]azepin-8-yl)morpholine] |
| 87 to 90 | CN1CCC(c2ccc(F)cc2)c2ccc(N3CCOCC3)cc2C1 (single isomer, unassigned; (+)) (as salt: maleate) [Example 85, (+)-4-(5-(4-fluorophenyl)-2-methyl-2,3,4,5-tetrahydro-1H-benzo[c]azepin-8-yl)morpholine] |
| 124 to 127 | CN1CCC(c2ccccc2)c2ccc(CN3CCOCC3)cc2C1 (single isomer, unassigned; (+)) (as salt: tartrate) [Example 22, (+)-4-((2-methyl-5-phenyl-2,3,4,5-tetrahydro-1H-benzo[c]azepin-8-yl)methyl)morpholine] |
| 93 to 96 | OCCN1CCC(c2ccccc2)c2ccc(N3CCOCC3)cc2C1 (single isomer, unassigned; (+)) (as salt: tartrate) [Example 59, (+)-2-(8-morpholino-5-phenyl-4,5-dihydro-1H-benzo[c]azepin-2(3H)-yl)ethanol] |
| 102 to 105 | FCCN1CCC(c2ccccc2)c2ccc(N3CCOCC3)cc2C1 (single isomer, unassigned; (+)) (as salt: tartrate) [Example 60, (+)-4-(2-(2-fluoroethyl)-5-phenyl-2,3,4,5-tetrahydro-1H-benzo[c]azepin-8-yl)morpholine] |
| 119 to 121 | CN1CCC(c2ccccc2)c2ccc(N3CCN(c4ncccn4)CC3)cc2C1 (single isomer, unassigned; (+)) (as salt: tartrate) [Example 69, (+)-2-methyl-5-phenyl-8-(4-(pyrimidin-2-yl)piperazin-1-yl)-2,3,4,5-tetrahydro-1H-benzo[c]azepine] |
| 142 to 144 | CN1CCC(c2ccccc2)c2ccc(-c3ccc4nccn4c3)cc2C1 (single isomer, unassigned; (+)) (as salt: tartrate) [Example 73, (+)-8-(imidazo[1,2-a]pyridin-6-yl)-2-methyl-5-phenyl-2,3,4,5-tetrahydro-1H-benzo[c]azepine] |
